In patent publication US4275248A, “Preparation of 2,4,6-triisopropylphenol” (UOP Inc., priority 1980, dated 1981):
“Also recorded” adds a separate entry of the source. Where two headings read alike, the source gives them in different places.

What was measured:
[1] = Induction period prior to oxidation, ANSI/ASTM method D525-74, gasoline sample A
Procedure: (§1) The effectiveness of materials as antioxidants in liquid petroleum products was determined by measurement of the induction period prior to oxidation, ANSI/ASTM method D525-74, and by measurement of gum formation under accelerated storage conditions, ANSI/ASTM method D873-74. The liquid petroleum product was either a base washed riser-cracked gasoline from British Petroleum Co., Canada (sample A) or a base washed, blended full range gasoline from Union Oil (sample B). As a comparison, there is included an antioxidant of wide commercial utility which consists of 2,6-di-t-butylphenol (75%), 2,4,6-tri-t-butylphenol (15%) and 2,t-butylphenol (10%) and which we designate by the symbol E733.

[2] = Induction period prior to oxidation, ANSI/ASTM method D525-74, gasoline sample B; conditions: runs 4-7 (no additive: 80-105)
Procedure: as §1

[3] = Gum formation under accelerated storage conditions, ANSI/ASTM method D873-74, gasoline sample A
Procedure: as §1

[4] = Gum formation under accelerated storage conditions, ANSI/ASTM method D873-74, gasoline sample B; conditions: runs 4-7 (no additive: 320)
Procedure: as §1

[5] = Oxidative stability of gasoline / petroleum distillates, overall antioxidant effectiveness in words; conditions: for effectiveness in increasing the induction period: versus commercial product commonly used to stabilize gasoline
Excerpt: Among the products which may be prepared by this invention, the di- and tri-isopropylated hydroxy substituted aromatic compounds are effective antioxidants for stabilizing various petroleum distillates. Examples of the latter include home heating fuel, gasoline, diesel fuel, aviaton fuel, kerosene, and lubricating oils. […] One way of determining the stabilizing effect of additives is to compare the induction period to oxidation of a composton differing only in the nature of the additive present. […] The di- and tri-isopropylated phenols of the present invention may be used as antioxidants at concentrations from about 5 parts per million by weight to about 5% by weight, and preferably from about 5 to about 500 parts per million by weight when used in fuel oils.
as §1

[6] = 20 ppm, runs 4-7 (no additive: 125-130)
[7] = 35 ppm, runs 4-7 (no additive: 125-130)
[8] = 50 ppm, runs 4-7 (no additive: 125-130)
[9] = 35 ppm, runs 4-7 (no additive: 180)
[10] = 50 ppm, runs 4-7 (no additive: 180)

SMILES	Induction Period [1, 6] [min]	Induction Period [1, 7] [min]	Induction Period [1, 8] [min]	Induction Period ([2]; 20 ppm) [min]	Induction Period ([2]; 35 ppm) [min]	Induction Period ([2]; 50 ppm) [min]	Accelerated Gum [3, 9]	Accelerated Gum [3, 10]	Accelerated Gum ([4]; 20 ppm) [mg/100 ml]	Accelerated Gum ([4]; 35 ppm) [mg/100 ml]	Accelerated Gum ([4]; 50 ppm) [mg/100 ml]	antioxidant effectiveness for stabilizing petroleum distillates [5]	imparting oxidative stability to the gasolines tested [5]	effectiveness in increasing the induction period [5]	Induction Period ([1]; 20 ppm, runs 1-3 (no additive: 170)) [min]	Induction Period ([1]; 40 ppm, runs 1-3 (no additive: 170)) [min]	Accelerated Gum ([3]; 20 ppm, runs 1-3 (no additive: 45)) [mg/100 ml]	Accelerated Gum ([3]; 40 ppm, runs 1-3 (no additive: 45)) [mg/100 ml]	antioxidant effectiveness for stabilizing petroleum distillates ([5]; general statement in words)	imparting oxidative stability to the gasolines tested ([5]; versus commercial standard, measured by increase in induction period and decrease in gum formation)
CC(C)c1cc(C(C)C)c(O)c(C(C)C)c1 [2,4,6-triisopropylphenol]	245	310	375	270	350	420	7-8 mg/100 ml	7-8 mg/100 ml	13	2.5	2.5	particularly effective	substantially more effective than an accepted commercial standard	substantially more effective in increasing the induction period	–	–	–	–	–	–
CC(C)c1cccc(C(C)C)c1O [2,6-diisopropylphenol]	200	240	305	195	250	310	35 mg/100 ml	9 mg/100 ml	–	4.5	3.5	–	–	–	–	–	–	–	–	–
Cc1cc(C(C)C)c(O)c(C(C)C)c1 [2,6-diisopropyl-4-methylphenol]	–	–	–	–	–	–	–	–	–	–	–	–	–	substantially more effective in increasing the induction period	340	475	5	3	particularly effective; also recorded: particularly desirable antioxidant properties	substantially more effective than an accepted commercial standard
